Target: T1, WEE1 (Homo sapiens, UniProt P30291)
T1 construct: purchased Thermo Fisher Scientific (Life Technologies) SelectScreen
Assay: SelectScreen LanthaScreen
Type: binding
Details: read-out: % displacement
In short: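 SelectScreen broad panel; activity (Z'LYTE, Adapta) plus binding formats. ATP: Km app for CSF1R Z'LYTE; 10 for CAMK1 Adapta. Readout = % per kinase.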

T1 sequence (P30291 whole entry): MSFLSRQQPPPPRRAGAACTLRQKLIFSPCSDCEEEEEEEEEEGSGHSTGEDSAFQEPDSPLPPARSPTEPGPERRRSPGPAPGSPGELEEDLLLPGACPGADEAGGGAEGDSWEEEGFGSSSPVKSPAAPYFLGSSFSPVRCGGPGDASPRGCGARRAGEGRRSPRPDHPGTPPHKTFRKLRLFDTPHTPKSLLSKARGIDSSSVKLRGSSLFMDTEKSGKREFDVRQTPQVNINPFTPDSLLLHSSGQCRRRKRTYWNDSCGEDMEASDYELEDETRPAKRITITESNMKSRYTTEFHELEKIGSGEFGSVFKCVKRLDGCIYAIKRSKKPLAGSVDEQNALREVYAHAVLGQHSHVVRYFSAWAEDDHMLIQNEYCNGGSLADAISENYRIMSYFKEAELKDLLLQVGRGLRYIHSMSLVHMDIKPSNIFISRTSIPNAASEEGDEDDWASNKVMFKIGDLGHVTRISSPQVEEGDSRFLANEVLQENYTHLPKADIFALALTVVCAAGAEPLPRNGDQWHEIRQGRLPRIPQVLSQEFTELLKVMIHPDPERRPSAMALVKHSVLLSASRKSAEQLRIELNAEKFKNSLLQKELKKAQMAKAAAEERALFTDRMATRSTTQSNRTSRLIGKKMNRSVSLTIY

Question: `CN(C(=O)CN1CCOCC1)c1ccc2sc3c(-c4cccc5c(=O)cc(N6CC7CCC(C6)O7)oc45)cccc3c2c1` [NU5455] was tested. Which inhibition at 1 µM did it give?
Answer: 18.2%
